# Entries after “also recorded” stand apart in the source; their conditions may differ. Where a SMILES comes first, the peptide text is derived from it. The star is where a group is joined. Cbz = O=C(OCc1ccccc1)*; CH2F = FC*
# Experiments:
# [1] = test system: PBMC from three healthy donors; assay: T cell expansion with FasL blockade or caspase inhibition, anti-CD3 (OKT3) stimulation; assay type: cell-based, human; settings: OKT3 activation; agent replenished at each media exchange (continuous); 2 μM Z-VAD-FMK or 500 ng/ml NOK-1
# Protocol: Apoptotic inhibitors directed against Fas- and caspase-mediated pathways were assessed to determine effects on tumor reactive T cells during manufacturing. The studies were carried out in healthy donors, and thus, stimulation of the T cells were carried out with anti-CD3 (OKT3) or anti-CD3/anti-CD28 stimulation in order to mimic conditions present in the tumor microenvironment (TME). Constant activation signals present in the tumor microenvironment, as can be stimulated by anti-CD3 or anti-CD3/anti-CD28 activation can be detrimental to T cell growth. Cellular viability and projected cell numbers were used to compare the impact of modulation of apoptotic pathways in both a transient and a continuous activation assay, the latter of which more closely recapitulates the tumor microenvironment.
# Cells were then seeded into a 24-well gas permeable cell culture plate at a density of 2.14×10^5 cells/mL (7.5×10^5 cells/cm^2). Cells were activated for 48 hours using 50 ng/ml OKT3, a human anti-CD3 monoclonal antibody, and were additionally treated with agents as described below. […]
# Cultures were maintained for at least 13 days with a 50% media exchange every other day beginning on culture day 2. Cell counts and viability were monitored every other day. […]
# [2] = test system: PBMC from two healthy donors; assay: T cell expansion with FasL blockade or caspase inhibition, anti-CD3/anti-CD28 bead stimulation (transient or continuous activation); assay type: cell-based, human
# Protocol: Cells were then seeded into a 24-well gas permeable cell culture plate at a density of 1.5×10^5 cells/mL (5.0×10^5 cells/cm^2).
# Culture wells were assigned to one of two treatment groups, transient or continuous activation. For transient activation, anti-CD3/anti-CD28 paramagnetic beads (Dyanbeads™) were added to the culture media at a ratio of 1 bead per cell starting on culture day 0, and then were removed during media exchange on day 2. For continuous activation, anti-CD3/anti-CD28 paramagnetic beads (Dyanbeads™) were added to the culture media at a ratio of 1 bead per cell starting on culture day 0, and then added again on Day 4, and again on Day 6 at a ratio of 1 bead per cell. The anti-CD3/anti-CD28 paramagnetic beads were not removed on Day 2, 4 or 6.
# For both the continuous and transient activation, culture wells were assigned to one of five treatment groups as described above for 10 conditions total per donor.
# Cell counts and viability were monitored every other day. When cells reached 3×10^6 cells/ml, 1.5×10^6 cells were sub-cultured into a new well of a 24-well gas permeable culture plate with 7 mL final volume of medium and the culture continued as described above.
# [3] = test system: expanded human T cells from three healthy donors; assay: Effect of T cell adjuvants on T cell viability (total viable CD3+ cell count, with and without OKT3); assay type: cell-based; settings: 10 μg/mL for antibodies, 25 μM for Z-VAD-FMK; 6 days; irrespective of activation status
# Protocol: Cells were expanded from PBMC derived from Ficoll gradient separation from three healthy donor's apheresis material. […] Because the studies were carried out in healthy donors, stimulation of the T cells was carried out with anti-CD3 (OKT3) stimulation in order to mimic conditions present in the tumor microenvironment (TME).
# Cells were next seeded into gas permeable 100M culture vessels and expanded for 7-14 days to achieve a large bank of T cells, and cryopreserved. […] Half of wells were additionally supplemented with 50 ng/mL OKT3, a human anti-CD3 monoclonal antibody. In total, 15 test adjuvant agents were tested for their impact on cell viability in the presence and absence of anti-CD3 activation (see Table E3). Cells were cultured for 6 days total, including a 50% medium exchange on culture day 3, and monitored for total viable CD3+ cell count.
# Total viable CD3+ cell count for cells grown in the absence and presence of OKT3 stimulation are shown in FIGS. 27A-C and FIGS. 28A-C, respectively. The results shown are for the following concentrations of adjuvant: 10 μg/mL for tested antibodies (Tavolixizumab, Oxelumab, Ipilimumab, Tocilizumab, Urelumab, Pembrolizumab, Varlilumab, anti-GITR MK-1248, anto-human FasL); 25 μM for Z-VAD-FMK pan-caspase inhibitor; 250 nM for HSP inhibitor NVP-HSP990; and 1000 IU/mL for cytokine (IL-7, IL-15, IL-21, IL-23, IL-25, IL-27, or IL-35)).
# [4] = test system: CRC tumor fragment or SCS cultures; assay: Caspase inhibition in tumor processing (tumor fragment and SCS cultures); assay type: cell-based, human; settings: 2 μM replenished at each media exchange
# Protocol: Half of cultures contained media additionally supplemented with 2 μM of pan-caspase inhibitor Z-VAD-FMK which was replenished at each media exchange. Cultures were incubated at about 37° C. for a minimum of 18 days with a 50% medium exchange occurring every 2-3 days following culture day 5. Cell counts were performed on day 5 and at each medium exchange using the NC-200 Automated Cell Counter (ChemoMetec).
# [5] = test system: expanded human T cells from three healthy donors; assay: Cytokines, modulators and agonist antibodies with IL-2 on T cell number and naive/central memory phenotype; assay type: cell-based
# Protocol: PBMC from three healthy donors were activated, expanded, and cryopreserved as described in Example 11. […] As previously described, stimulation of the healthy donor T cells prior to cryopreservation were carried out with anti-CD3 (OKT3) stimulation in order to mimic conditions present in the tumor microenvironment (TME).
# Cells were next seeded into gas permeable 100M culture vessels and expanded for 7-14 days to achieve a large bank of T cells, and cryopreserved.
# Cells were maintained in culture for 6 days, with a 50% medium exchange occurring at 3 days post culture initiation.
# At the end of the culture period for all culture conditions, cells were assessed for cell count and sub-phenotypes of naïve and central memory T cells by flow cytometry by staining with CD45RA and CCR7 (naïve, CD45RA+ CCR7+; “central” memory, CD45RA− CCR7+).
# [6] = test system: T-cells from three healthy donors; assay: Activation markers on CD4+ and CD8+ T cells after OKT3 activation, flow cytometry; assay type: cell-based, human; settings: 50 ng/mL OKT3 vs no OKT3; 3-48 hours
# Protocol: Specific markers of activation on the CD4+ and CD8+ cell populations were measured using flow cytometry over a time course of 3-48 hours. Specifically, the following markers were assessed: CD38 and CD39 (FIG. 12A and FIG. 13A), CD134 and CD137 (FIG. 12B and FIG. 13B), and CD69 and CD90 (FIG. 12C and FIG. 13C).
# [7] = test system: cells processed from melanoma tumor fragments; assay: Anti-CD3 (OKT3) stimulation on expansion of melanoma tumor-derived cells; assay type: cell-based, human
# Protocol: Cells processed from melanoma tumor fragments as described in Examples 1 and 2, were cultured in the presence or absence of 50 ng/mL OKT3, a human anti-CD3 monoclonal antibody. Cell cultures were carried out to between 14 and 31 days, such as between 14 and 21 days, in either a conventional 6-well plate or a gas permeable culture plate with RPMI or OpTmizer media. […] About 50% of cellular media was exchanged every other day beginning on the 5th day of culture as described previously. Cells were then counted using the NC-200 Automated Cell Counter (Chemometec).
Compound,cell growth (total cell number) [1],"total viable cell number and viability ([2]; agent continuous, listed as caspase inhibitor)",total viable cell number and viability ([2]; agent transient (day 0 only)),viable cell counts versus DMSO treatment control [3],cell viability ([4]; SCS culture),outgrowth of T cells ([4]; SCS culture),cell viability ([4]; tumor fragment-derived culture),"outgrowth of cells (fold expansion, total viable cells) ([4]; tumor fragment-derived culture)","percent of naïve and central memory T cells compared to IL-2 alone ([5]; 0.2 μg/mL-50 μg/mL, Day 6)",CD3+ cells/mL on Day 6 compared to IL-2 alone ([5]; concentrations higher than 0.2 μg/mL),"upregulation of activation markers CD38, CD39, CD134, CD137, CD69, CD90 on CD4+ T cells [6]","upregulation of activation markers CD38, CD39, CD134, CD137, CD69, CD90 on CD8+ T cells [6]","total cell number and fold expansion ([7]; 50 ng/mL OKT3 vs no OKT3, with 300 or 6000 IU/mL IL-2, 14-31 days)","fold expansion ([7]; Donor 6, presence or absence of anti-CD3 stimulation, all conditions)"
"COC(=O)C[C@H](NC(=O)[C@H](C)NC(=O)[C@@H](NC(=O)OCc1ccccc1)C(C)C)C(=O)CF [Z-VAD-FMK, carbobenzoxy-valyl-alanyl-aspartyl-[O-methyl]-fluoromethylketone] (Cbz-Val-Ala-Asp(OMe)-CH2F)",greatest cell growth,outperformed the other conditions; also recorded: outperforming the transient condition,outperformed the other conditions,consistently higher viable cell counts,similarly high,not observed,also high,superior,no effect,substantially increased,,,,
OKT3: a human anti-CD3 monoclonal antibody,,,,,,,,,,,all assessed markers were upregulated to some extent,all assessed markers were upregulated to some extent,did not substantially impact; also recorded: largely similar,2-4 fold
